Reference: patent publication US6352995B1, “Spiro-quinuclidine derivatives, their preparation and use” (Neurosearch A/S, priority 1997, dated 2002)
Where two headings read alike, the source gives them in different places.

Key:
[1] = molecular target: nAChRs comprised of α4 and β2 subunits (3H-cytisine binding, cerebral cortex homogenate) (Rattus norvegicus, UniProt P09483+P12390); experiment: In vitro inhibition of 3H-cytisine binding
Experimental: In Vitro Inhibition of 3H-cytisine Binding
The predominant subtype with high affinity for nicotine is comprised of α4 and β2 subunits. nAChRs of the latter type can selectively be labelled by the nicotine agonist ^3H-cytisine.
Tissue Preparation: Preparations are performed at 0-4° C. unless otherwise indicated. […] The homogenate is centrifuged at 27,000×g for 10 min. The supernatant is discarded and the pellet is resuspended in fresh buffer and centrifuged a second time. The final pellet is resuspended in fresh buffer (35 ml per g of original tissue) and used for binding assays.
Assay: Aliquots of 500 μl homogenate are added to 25 μl of test solution and 25 μl of ^3H-cytisine (1 nM, final concentration), mixed and incubated for 90 min at 2° C. Non-specific binding is determined using (−)-nicotine (100 μM, final concentration). After incubation the samples are added 5 ml of ice-cold buffer and poured directly onto Whatman GF/C glass fibre filters under suction and immediately washed with 2×5 ml ice-cold buffer. The amount of radioactivity on the filters is determined by conventional liquid scintillation counting. Specific binding is total binding minus non-specific binding.
Results are given as IC50 values; the concentration (μM) that inhibit binding of the radioactive ligand by 50 %.

[2] = molecular target: nAChR formed by the α7 subunit (3H-α-bungarotoxin binding, cerebral cortex homogenate) (Rattus norvegicus, UniProt Q05941); experiment: biochemical
[3] = background statement; cited from earlier work
[4] = rat cerebral cortex, 1 nM 3H-cytisine, 90 min at 2° C., read-out: 3H-cytisine IC50

nAChRs comprised of α4 and β2 subunits (3H-cytisine binding, cerebral cortex homogenate), sequence (P09483 31-630): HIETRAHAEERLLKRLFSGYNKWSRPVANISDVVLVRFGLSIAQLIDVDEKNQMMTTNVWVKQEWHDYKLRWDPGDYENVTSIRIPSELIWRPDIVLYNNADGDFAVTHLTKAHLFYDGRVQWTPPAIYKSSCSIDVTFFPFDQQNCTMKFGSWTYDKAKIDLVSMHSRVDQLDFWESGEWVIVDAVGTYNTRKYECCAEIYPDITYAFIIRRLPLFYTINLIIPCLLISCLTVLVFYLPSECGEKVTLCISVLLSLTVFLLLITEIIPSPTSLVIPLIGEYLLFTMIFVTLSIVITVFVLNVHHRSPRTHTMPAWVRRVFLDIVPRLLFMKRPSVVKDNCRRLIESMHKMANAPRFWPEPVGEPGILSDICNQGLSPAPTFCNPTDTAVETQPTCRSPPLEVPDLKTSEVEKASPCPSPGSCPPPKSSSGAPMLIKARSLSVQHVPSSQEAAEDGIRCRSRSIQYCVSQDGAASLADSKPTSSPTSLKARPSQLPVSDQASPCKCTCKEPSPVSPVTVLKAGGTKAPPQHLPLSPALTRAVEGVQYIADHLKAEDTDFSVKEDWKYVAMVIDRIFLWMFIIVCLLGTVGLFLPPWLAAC
nAChRs comprised of α4 and β2 subunits (3H-cytisine binding, cerebral cortex homogenate), sequence (P12390 25-500): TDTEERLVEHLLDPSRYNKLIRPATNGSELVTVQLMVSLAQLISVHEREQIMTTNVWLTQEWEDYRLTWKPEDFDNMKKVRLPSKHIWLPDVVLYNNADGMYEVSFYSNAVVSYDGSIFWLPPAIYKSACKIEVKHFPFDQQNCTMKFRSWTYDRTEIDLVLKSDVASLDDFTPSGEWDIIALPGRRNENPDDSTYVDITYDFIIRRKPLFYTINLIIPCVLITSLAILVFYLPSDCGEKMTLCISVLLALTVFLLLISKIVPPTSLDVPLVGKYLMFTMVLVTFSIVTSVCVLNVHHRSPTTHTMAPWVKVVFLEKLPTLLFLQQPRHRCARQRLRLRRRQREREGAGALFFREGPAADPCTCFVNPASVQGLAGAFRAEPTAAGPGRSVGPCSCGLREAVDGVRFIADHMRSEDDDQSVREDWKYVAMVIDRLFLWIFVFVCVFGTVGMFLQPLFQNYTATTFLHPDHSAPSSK
nAChR formed by the α7 subunit (3H-α-bungarotoxin binding, cerebral cortex homogenate), sequence (Q05941 23-502): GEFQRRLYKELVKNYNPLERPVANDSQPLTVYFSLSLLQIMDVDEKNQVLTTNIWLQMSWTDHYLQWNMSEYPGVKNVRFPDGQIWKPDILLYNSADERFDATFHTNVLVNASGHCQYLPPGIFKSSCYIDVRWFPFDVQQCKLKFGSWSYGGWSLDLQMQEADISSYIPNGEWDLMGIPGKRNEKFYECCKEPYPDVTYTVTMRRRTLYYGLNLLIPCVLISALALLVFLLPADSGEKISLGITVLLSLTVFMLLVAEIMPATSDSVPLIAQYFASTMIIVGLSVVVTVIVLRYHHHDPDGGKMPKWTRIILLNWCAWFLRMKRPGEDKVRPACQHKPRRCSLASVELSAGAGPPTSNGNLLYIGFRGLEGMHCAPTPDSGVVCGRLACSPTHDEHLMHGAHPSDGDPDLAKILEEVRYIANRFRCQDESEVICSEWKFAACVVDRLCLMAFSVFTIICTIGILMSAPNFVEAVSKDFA

Cc1ccc2c(c1)OC1(CN3CCC1CC3)O2 (racemic) [Compound 2a, (±)-6-methyl-spiro[benzo-1,3-dioxolane-2,3′-quinuclidine]] showed an IC50 [1, 4] of 23 µM, an IC50 [2] of 0.18 µM and a melting point of 173 to 175 °C.

CC(C)(C)c1ccc2c(c1)OC1(CN3CCC1CC3)O2 (racemic) [Compound 3a, (±)-6-t.-Butyl-spiro[benzo-1,3-dioxolane-2,3′-quinuclidine]] gave an IC50 [1, 4] of over 10 µM, an IC50 [2] of 2.3 µM and a melting point of 184 to 186 °C.

With c1ccc2c(c1)OC1(CN3CCC1CC3)O2 [Compound 1a, Spiro[benzo-1,3-dioxolane-2,3-quinuclidine]] the IC50 [1] was 30 µM, the IC50 [2] was 0.19 µM and the melting point was 123 to 125 °C.

In the case of Clc1ccc(C2CC3CCC2N3)cn1 (stereo not shown) [Epibatidine], the “analgesic potency relative to morphine” value [3] is listed as ~500 times that of morphine.
